Reference: the NIST ThermoML archive (doi:10.1016/j.jct.2016.05.015)

What was measured:
[1] = 100 kPa, Liquid; for viscosity: Capillary tube (Ostwald / Ubbelohde) method; for speed of sound: Frequency=2 MHz, Linear variable-path acoustic interferometer; for mass density: Vibrating tube method
[2] = xn = mol fraction of the nth substance listed; conditions: 100 kPa, Liquid, x2 = 0; for viscosity: Capillary tube (Ostwald / Ubbelohde) method; for speed of sound: Frequency=2 MHz, Linear variable-path acoustic interferometer; for mass density: Vibrating tube method

Brc1ccccc1 [bromobenzene]
[1]
Conditions | mass density [kg/m3] | speed of sound [m/s] | viscosity [mPa·s]
303.15 K | 1481.52 | 1136 | 0.982
308.15 K | 1475.36 | 1122 | 0.953
313.15 K | 1468.02 | 1109 | 0.892
318.15 K | 1461.36 | 1099 | 0.848

Brc1ccccc1 [bromobenzene] + Nc1cccc(Cl)c1
[2]
Conditions | mass density [kg/m3] | speed of sound [m/s] | viscosity [mPa·s]
303.15 K | 1481.52 | 1136 | 0.982
308.15 K | 1475.36 | 1122 | 0.953
313.15 K | 1468.02 | 1109 | 0.892
318.15 K | 1461.36 | 1099 | 0.848

Clc1ccccc1 [chlorobenzene]
[1]
Conditions | mass density [kg/m3] | speed of sound [m/s] | viscosity [mPa·s]
303.15 K | 1095.54 | 1248.2 | 0.712
308.15 K | 1089.72 | 1226 | 0.675
313.15 K | 1084.71 | 1206 | 0.634
318.15 K | 1079.45 | 1181 | 0.602

Clc1ccccc1 [chlorobenzene] + Nc1cccc(Cl)c1
[2]
Conditions | mass density [kg/m3] | speed of sound [m/s] | viscosity [mPa·s]
303.15 K | 1095.54 | 1248.2 | 0.712
308.15 K | 1089.72 | 1226 | 0.675
313.15 K | 1084.71 | 1206 | 0.634
318.15 K | 1079.45 | 1181 | 0.602

O=[N+]([O-])c1ccccc1 [nitrobenzene]
[1]
Conditions | mass density [kg/m3] | speed of sound [m/s] | viscosity [mPa·s]
303.15 K | 1193.45 | 1438 | 1.627
308.15 K | 1188.29 | 1420 | 1.498
313.15 K | 1183.69 | – | 1.388
318.15 K | 1177.32 | 1385 | 1.275

O=[N+]([O-])c1ccccc1 [nitrobenzene] + Nc1cccc(Cl)c1
[2]
Conditions | mass density [kg/m3] | speed of sound [m/s] | viscosity [mPa·s]
303.15 K | 1193.45 | 1438 | 1.627
308.15 K | 1188.29 | 1420 | 1.498
313.15 K | 1183.69 | 1402 | 1.388
318.15 K | 1177.32 | 1385 | 1.275
